Source: ChEMBL document CHEMBL1201862, “PubChem BioAssay data set” (2004)
Active and inactive are the calls of the source.

Legend:
[1] = viability of uninfected HEp-2 cells – cell-based, HTS, cytotoxicity control for RSV inhibitor project, dose response (AID 2410); assay type: functional; conditions: human respiratory syncytial virus
H4 = experiment: Luminescence Cell-Based Dose Response HTS to Identify Activators of 5'UTR Stem-Loop Driven Prion Protein mRNA Translation in H4 Neuroglioblastoma Cells. [Related pubchem assays: 1829 (Project Summary), 1814 (Primary HTS)]; assay type: functional; conditions: Homo sapiens
[2] = biological target: FAD-linked sulfhydryl oxidase ALR (Homo sapiens, UniProt P55789); experiment: ALR-catalysed DTT oxidation blockers – biochemical, H2O2 detection, luminescence, cherry-pick, dose response (AID 493248)
Chain of FAD-linked sulfhydryl oxidase ALR (P55789 whole entry): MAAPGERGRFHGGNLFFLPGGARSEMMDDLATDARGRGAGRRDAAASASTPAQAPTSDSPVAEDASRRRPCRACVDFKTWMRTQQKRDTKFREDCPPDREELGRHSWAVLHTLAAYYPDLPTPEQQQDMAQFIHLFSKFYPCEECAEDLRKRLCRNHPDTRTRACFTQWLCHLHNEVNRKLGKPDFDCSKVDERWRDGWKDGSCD

[3] = Trypanosoma cruzi growth suppression in host cells – NIH3T3 host cells, beta-gal luminescence, confirmation (AID 2044); assay type: functional, cell-based;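 further: intracellular parasites grown in NIH/3T3 mouse fibroblasts as host cells; luminescent beta-galactosidase reporter signal from transgenic T. cruzi replicating inside host cells; inhibitors lower the luminescence signal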
[4] = NIH3T3 cell viability loss – ATP luminescence, mouse fibroblasts, counter-screen, dose response (AID 2010); assay type: functional, cell-based;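 further: cells exposed to compound for about 90 hours before reading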
Cytochrome P450 2D6 = Cytochrome P450 2D6 (Homo sapiens, UniProt P10635);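 further: CYP2D6 member of a cytochrome P450 panel assay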
Chain of Cytochrome P450 2D6 (P10635 whole entry): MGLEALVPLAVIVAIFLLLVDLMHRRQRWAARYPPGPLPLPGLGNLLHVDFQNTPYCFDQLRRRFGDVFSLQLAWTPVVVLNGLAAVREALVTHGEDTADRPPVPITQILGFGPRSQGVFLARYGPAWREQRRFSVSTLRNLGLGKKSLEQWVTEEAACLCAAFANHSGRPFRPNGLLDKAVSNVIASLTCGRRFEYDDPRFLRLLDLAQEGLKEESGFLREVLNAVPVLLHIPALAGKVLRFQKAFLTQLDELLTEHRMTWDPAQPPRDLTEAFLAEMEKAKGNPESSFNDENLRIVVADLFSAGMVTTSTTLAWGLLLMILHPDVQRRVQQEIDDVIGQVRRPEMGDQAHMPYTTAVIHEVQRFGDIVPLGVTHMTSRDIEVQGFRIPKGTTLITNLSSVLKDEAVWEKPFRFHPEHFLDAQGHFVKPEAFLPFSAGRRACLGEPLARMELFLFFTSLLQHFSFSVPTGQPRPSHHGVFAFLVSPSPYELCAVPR

[5] = biological target: T1, Polyadenylate-binding protein 1 (Homo sapiens, UniProt P11940); experiment: MLLE binding blockers, Cy5 peptide tracer – biochemical, fluorescence polarization, Cy5-PAM2 peptide, secondary, miRNA deadenylation inhibitor project, dose response (AID 602260); assay type: functional; conditions: read-out: IC50_Mean
T1 sequence (P11940 whole entry, the tested form may be a part): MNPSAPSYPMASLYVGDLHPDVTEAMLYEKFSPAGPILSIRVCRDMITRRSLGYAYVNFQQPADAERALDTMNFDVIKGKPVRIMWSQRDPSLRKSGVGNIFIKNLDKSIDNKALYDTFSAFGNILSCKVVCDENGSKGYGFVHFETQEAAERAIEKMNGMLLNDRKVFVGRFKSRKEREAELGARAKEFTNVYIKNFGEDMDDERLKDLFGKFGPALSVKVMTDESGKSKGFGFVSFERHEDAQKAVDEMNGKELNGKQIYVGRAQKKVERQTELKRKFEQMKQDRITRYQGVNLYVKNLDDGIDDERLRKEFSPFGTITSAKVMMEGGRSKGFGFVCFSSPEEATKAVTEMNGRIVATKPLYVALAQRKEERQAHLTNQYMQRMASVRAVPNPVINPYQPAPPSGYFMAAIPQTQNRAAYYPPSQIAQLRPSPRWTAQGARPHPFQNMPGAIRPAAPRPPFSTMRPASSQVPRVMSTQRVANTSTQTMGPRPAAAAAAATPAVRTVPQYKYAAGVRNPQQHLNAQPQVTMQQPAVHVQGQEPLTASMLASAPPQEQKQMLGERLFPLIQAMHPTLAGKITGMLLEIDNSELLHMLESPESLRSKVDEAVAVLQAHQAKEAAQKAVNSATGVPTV

[6] = biological target: T1, Polyadenylate-binding protein 1; experiment: MLLE domain peptide-binding blockers, IC50 – biochemical, fluorescence polarization, FITC-PAM2 peptide, dose response (AID 602259); assay type: functional; conditions: read-out: IC50_Mean
cells [7] = assay type: functional, cell-based
cells [8] = assay type: functional, cell-based; remark: listed apart in the source
[9] = viability of PTEN-deleted HCT116 cells – cell-based, HCT116 PTEN knockout, dose response (AID 1047); assay type: functional;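 further: HCT116 colon tumor cells with PTEN knocked out; cells exposed to compound for 60 hours before readout; potency for loss of cell viability measured by luminescence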
[10] = viability of HCT116 lacking mutant beta-catenin – cell-based, human colon tumor, dose response (AID 1045); assay type: functional;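 further: HCT116 colon tumor cells with beta catenin knocked out; cells exposed to compound for 60 hours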
[11] = biological target: T2, Heat shock factor protein 1 (Mus musculus, UniProt P38532); experiment: decrease of HSF1-responsive luciferase luminescence – cell-based, NIH3T3, dose retest, confirmation (AID 2382); assay type: functional;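 further: NIH3T3 fibroblasts with HSF1-driven luciferase reporter stressed by proteasome inhibitor MG132; luminescence from HSF1-driven luciferase expression after 8 hours of MG132 stress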
T2 sequence (P38532 whole entry): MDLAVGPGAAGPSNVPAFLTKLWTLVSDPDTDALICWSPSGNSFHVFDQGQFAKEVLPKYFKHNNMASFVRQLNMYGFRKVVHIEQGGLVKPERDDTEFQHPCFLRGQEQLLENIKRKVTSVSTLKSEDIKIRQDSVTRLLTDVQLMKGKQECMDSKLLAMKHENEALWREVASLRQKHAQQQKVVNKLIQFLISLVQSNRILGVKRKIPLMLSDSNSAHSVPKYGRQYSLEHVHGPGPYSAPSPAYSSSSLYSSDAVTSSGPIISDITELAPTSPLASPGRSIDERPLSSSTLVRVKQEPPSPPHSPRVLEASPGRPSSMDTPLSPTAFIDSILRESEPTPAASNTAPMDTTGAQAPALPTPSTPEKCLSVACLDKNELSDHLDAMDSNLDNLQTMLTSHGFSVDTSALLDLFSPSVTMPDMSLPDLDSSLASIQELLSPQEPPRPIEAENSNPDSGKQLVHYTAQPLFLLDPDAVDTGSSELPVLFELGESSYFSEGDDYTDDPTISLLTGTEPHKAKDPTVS

[12] = biological target: Luciferin 4-monooxygenase (Photinus pyralis, UniProt P08659); experiment: inhibition of purified Photinus pyralis luciferase – biochemical, luminescence, dose response (AID 1891)
Chain of Luciferin 4-monooxygenase (P08659 whole entry): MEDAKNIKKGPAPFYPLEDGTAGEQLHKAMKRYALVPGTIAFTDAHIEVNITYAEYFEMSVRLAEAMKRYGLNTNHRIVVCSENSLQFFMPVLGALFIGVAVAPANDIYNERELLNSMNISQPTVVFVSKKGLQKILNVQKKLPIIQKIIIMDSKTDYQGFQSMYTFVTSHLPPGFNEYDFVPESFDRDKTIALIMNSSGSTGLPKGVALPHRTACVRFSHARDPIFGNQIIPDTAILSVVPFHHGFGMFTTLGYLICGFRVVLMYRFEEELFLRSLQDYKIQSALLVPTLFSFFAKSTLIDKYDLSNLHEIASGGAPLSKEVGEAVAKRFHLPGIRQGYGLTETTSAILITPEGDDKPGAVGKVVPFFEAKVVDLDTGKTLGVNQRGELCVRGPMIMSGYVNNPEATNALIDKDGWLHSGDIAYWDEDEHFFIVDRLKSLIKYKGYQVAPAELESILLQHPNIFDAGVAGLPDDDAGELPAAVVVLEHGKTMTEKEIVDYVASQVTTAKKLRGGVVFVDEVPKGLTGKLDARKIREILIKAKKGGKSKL

[13] = Luminescence Cell-Based Dose Confirmation HTS to Identify Inhibitors of Platelet Dense Granule Release. [Related pubchem assays: 1663 (Primary HTS), 1678 (Summary of Project)]; assay type: functional
Cytochrome P450 2C9 = Cytochrome P450 2C9 (Homo sapiens, UniProt P11712)
Chain of Cytochrome P450 2C9 (P11712 whole entry): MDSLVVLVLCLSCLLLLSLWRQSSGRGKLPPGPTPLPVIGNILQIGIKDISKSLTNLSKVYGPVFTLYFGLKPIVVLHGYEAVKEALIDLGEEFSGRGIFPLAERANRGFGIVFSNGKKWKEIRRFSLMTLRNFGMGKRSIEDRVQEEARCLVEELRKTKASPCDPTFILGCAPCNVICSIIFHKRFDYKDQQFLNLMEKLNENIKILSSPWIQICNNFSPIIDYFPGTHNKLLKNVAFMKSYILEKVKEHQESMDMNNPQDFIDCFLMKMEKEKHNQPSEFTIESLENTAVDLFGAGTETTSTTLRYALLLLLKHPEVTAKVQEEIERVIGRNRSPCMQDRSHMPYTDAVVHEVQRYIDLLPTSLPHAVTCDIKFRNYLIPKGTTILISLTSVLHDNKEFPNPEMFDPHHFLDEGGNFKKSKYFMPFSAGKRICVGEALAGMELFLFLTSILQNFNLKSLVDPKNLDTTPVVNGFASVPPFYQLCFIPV

Cytochrome P450 1A2 = biological target: T3, Cytochrome P450 1A2 (Homo sapiens, UniProt P05177);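 further: PubChem cytochrome P450 panel assay, CYP1A2 panel member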
T3 sequence (P05177 whole entry): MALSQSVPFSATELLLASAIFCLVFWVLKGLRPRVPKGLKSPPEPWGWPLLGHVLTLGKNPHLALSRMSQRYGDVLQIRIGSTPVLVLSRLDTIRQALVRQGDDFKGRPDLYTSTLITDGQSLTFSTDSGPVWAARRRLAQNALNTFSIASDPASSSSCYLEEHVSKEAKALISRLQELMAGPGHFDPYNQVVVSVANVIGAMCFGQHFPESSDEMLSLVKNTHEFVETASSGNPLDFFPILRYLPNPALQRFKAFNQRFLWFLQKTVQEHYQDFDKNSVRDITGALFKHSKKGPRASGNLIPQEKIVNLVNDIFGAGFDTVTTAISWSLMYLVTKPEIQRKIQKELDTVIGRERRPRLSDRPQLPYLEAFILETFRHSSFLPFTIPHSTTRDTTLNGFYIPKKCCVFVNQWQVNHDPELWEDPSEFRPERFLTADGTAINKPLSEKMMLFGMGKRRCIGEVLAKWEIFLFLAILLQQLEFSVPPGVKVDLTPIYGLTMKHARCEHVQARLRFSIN

Cytochrome P450 3A4 = Cytochrome P450 3A4 (Homo sapiens, UniProt P08684);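 further: CYP3A4 tested as one member of a cytochrome P450 panel screen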
Chain of Cytochrome P450 3A4 (P08684 whole entry): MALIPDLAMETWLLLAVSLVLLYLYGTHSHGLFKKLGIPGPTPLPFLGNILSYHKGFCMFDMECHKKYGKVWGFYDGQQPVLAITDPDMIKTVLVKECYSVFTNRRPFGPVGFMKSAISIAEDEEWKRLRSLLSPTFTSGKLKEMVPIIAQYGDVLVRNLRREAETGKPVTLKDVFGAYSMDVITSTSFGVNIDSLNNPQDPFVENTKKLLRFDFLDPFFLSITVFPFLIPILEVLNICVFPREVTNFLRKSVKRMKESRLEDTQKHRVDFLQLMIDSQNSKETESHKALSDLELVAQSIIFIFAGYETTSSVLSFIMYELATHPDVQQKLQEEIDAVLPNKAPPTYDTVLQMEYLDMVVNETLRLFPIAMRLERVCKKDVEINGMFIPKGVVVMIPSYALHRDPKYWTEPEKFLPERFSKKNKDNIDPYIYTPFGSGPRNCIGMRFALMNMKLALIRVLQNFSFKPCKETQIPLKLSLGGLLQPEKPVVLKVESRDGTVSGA

cells [14] = assay type: functional
Cytochrome P450 2C19 = Cytochrome P450 2C19 (Homo sapiens, UniProt P33261); experiment: Cytochrome panel assay with activity outcomes. Panel member name: p450-cyp2c19 Compounds with AC50 equal or less than 10 uM are considered active; assay type: functional; conditions: read-out: AC50
Chain of Cytochrome P450 2C19 (P33261 whole entry): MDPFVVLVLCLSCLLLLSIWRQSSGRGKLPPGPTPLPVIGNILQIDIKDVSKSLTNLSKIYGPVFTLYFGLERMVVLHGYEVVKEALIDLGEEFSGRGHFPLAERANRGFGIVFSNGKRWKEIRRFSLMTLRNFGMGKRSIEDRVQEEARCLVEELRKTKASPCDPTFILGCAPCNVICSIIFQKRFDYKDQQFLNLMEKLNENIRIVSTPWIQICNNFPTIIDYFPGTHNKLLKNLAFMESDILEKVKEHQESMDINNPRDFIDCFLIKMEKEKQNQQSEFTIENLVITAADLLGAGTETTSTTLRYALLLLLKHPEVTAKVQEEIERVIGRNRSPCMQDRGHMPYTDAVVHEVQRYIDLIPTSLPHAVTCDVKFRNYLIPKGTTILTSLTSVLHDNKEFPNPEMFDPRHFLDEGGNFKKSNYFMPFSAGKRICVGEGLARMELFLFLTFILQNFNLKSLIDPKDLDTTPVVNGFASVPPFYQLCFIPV

CCCOc1ccc(NC(=O)CC2C(=O)N(CC)C(=S)N2CCCN2CCN(Cc3ccccc3)CC2)cc1 (stereo not drawn)
CC50 [1]: 14.3 µM (active)

COc1cc2sc3ccc(-c4ccc5[nH]ccc5c4)cc3c(=O)c2cc1OC
EC50 (H4): > 120 µM (not active)

N#Cc1nc(-c2cccc3ccccc23)oc1NCC1CCCO1 (stereo not drawn)
CC50 [1]: 21.7 µM (active)

Cc1ccc(NC(=O)CN(c2ccc3c(c2)OCO3)S(=O)(=O)c2c(C)n[nH]c2C)cc1
AC50 [2]: > 100 µM (inactive)

O=C(Nc1cccc(NC(=O)c2ccc(-c3cccc(Br)c3)o2)c1)c1ccco1
CC50 [1]: 16 µM (active) | EC50 [3]: 3.69 µM (active) | EC50 [4]: 14.9 µM (active) | AC50 (Cytochrome P450 2D6): 17.8 µM (inconclusive)

N#Cc1c2n(c(=S)n(-c3ccccc3[N+](=O)[O-])c1=O)CCCCC2
IC50 [5]: > 66 µM (inactive) | IC50 [6]: > 66 µM (inactive)

O=C(CS(=O)(=O)c1ccccc1)Nc1ccc(N2CCOCC2)cc1
EC50 (cells [7]): > 350 µM (not active) | EC50 (cells [8]): > 350 µM (not active)

CCOC(=O)c1cc(CC)sc1NC(=O)c1ccc([N+](=O)[O-])c(N2CCOCC2)c1
EC50 [9]: 39.9 µM (active) | EC50 [10]: 34.2 µM (active)

COc1cccc(Nc2ccc(C(=O)O)cc2N)c1
EC50 [11]: > 195 µM (not active) | AC50 [2]: 1.17 µM (active)

CC(C)N(CC(N)=O)c1ncnc2sc(-c3ccccc3)cc12
CC50 [1]: 25.9 µM (active)

CC(=O)c1c(C)nc2nonc2c1N
EC50 [12]: > 112 µM (not active) | EC50 [13]: 26.6 µM (active)

CCCCOC(=O)c1ccc(NC(=O)C(=O)NCc2cccnc2)cc1
EC50 (cells [7]): > 350 µM (not active) | EC50 (cells [8]): > 350 µM (not active)

NCCCCCc1nnc(SCc2ccc(Cl)cc2Cl)o1
AC50 [2]: 2.63 µM (active) | AC50 (Cytochrome P450 2C9): 14.1 µM (inconclusive)

CCc1c(C(C)S(=O)(=O)c2ccccc2)nc(O)n1CC (stereo not drawn)
IC50 [5]: > 66 µM (inactive) | IC50 [6]: > 66 µM (inactive)

Cc1ccc(-c2ccc(=O)n(CC(=O)NCc3ccco3)n2)cc1
AC50 (Cytochrome P450 2D6): 22.4 µM (inconclusive) | AC50 (Cytochrome P450 1A2): 15.8 µM (inconclusive) | AC50 (Cytochrome P450 3A4): 25.1 µM (inconclusive)

O=C1NCCCc2c1oc1cc(Br)c(O)c(Br)c21
AC50 [2]: 3.5 µM (active)

COc1cc2ncnc(NCc3cccs3)c2cc1OC
EC50 (cells [7]): > 350 µM (not active) | EC50 (cells [8]): > 350 µM (not active)

CN1CCN(C(=S)c2ccc(N(C)C)cc2)CC1
AC50 [2]: 1.45 µM (active)

O=C(c1ccc(S(=O)(=O)c2cccc(Cl)c2)c([N+](=O)[O-])c1)N1CCN(Cc2ccccc2)CC1
CC50 [1]: 6.34 µM (active)

FC(F)c1nnc2ccc(Cl)nn12
IC50 (cells [14]): 7.13 µM (active)

COC(=O)[C@H](CC(C)C)NC(=O)NCCC1=CCCCC1
IC50 (cells [14]): 21.6 µM (active)

CCN1C(=O)[C@@H]2[C@@H](c3ccc(SC4CCCCC4)cc3)N3CCC[C@@]3(C(=O)OC)[C@@H]2C1=O
IC50 [5]: > 66 µM (inactive) | IC50 [6]: > 66 µM (inactive)

COCc1c(C(=O)N/N=C(\C)c2ccc(Cl)s2)nnn1-c1nonc1N
EC50 (cells [7]): > 350 µM (not active) | EC50 (cells [8]): > 350 µM (not active)

CN(C)c1ccc(/C=N/NC(=O)c2ccco2)cc1
AC50 [2]: 6.78 µM (active)

Cc1cccn2c(=O)c(/C=N/Cc3ccco3)c(Nc3ccc(SC(F)F)cc3)nc12
EC50 [9]: 10.7 µM (active) | EC50 [10]: 14 µM (active) | AC50 (Cytochrome P450 2C19): 4.47 µM (inconclusive)
